Test results as given in ChEMBL document CHEMBL1201862, “PubChem BioAssay data set” (2004).
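Method: 48-hour compound exposure of cells in 96-well plates, five concentrations, linear interpolation of endpoints. The concentration for 50% growth inhibition is given as GI50.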 The source made the active and inactive calls. Cut-off read from the data, not from the text of the source: active = GI50 up to about 1.1 µM and inactive = higher.

What was measured:
Test in all cases: DTP human tumour cell line panel, 48 h
OVCAR-4 = test system: OVCAR-4
NCI-H226 = test system: NCI-H226
HT-29 = test system: HT-29
KM12 = test system: KM12
OVCAR-8 = test system: OVCAR-8
SNB-19 = test system: SNB-19
SK-MEL-2 = test system: SK-MEL-2
786-0 = test system: 786-0
MDA-N = test system: MDA-N
CAKI-1 = test system: CAKI-1
K562 = test system: K562
MDA-MB-435 = test system: MDA-MB-435
BT-549 = test system: BT-549
SF-539 = test system: SF-539
SK-OV-3 = test system: SK-OV-3
NCI-H522 = test system: NCI-H522
OVCAR-5 = test system: OVCAR-5
OVCAR-3 = test system: OVCAR-3
HOP-62 = test system: HOP-62
MCF7 = test system: MCF7

Row | SMILES | GI50 (OVCAR-4) | GI50 (NCI-H226) | GI50 (HT-29) | GI50 (KM12) | GI50 (OVCAR-8) | GI50 (SNB-19) | GI50 (SK-MEL-2) | GI50 (786-0) | GI50 (MDA-N) | GI50 (CAKI-1) | GI50 (K562) | GI50 (MDA-MB-435) | GI50 (BT-549) | GI50 (SF-539) | GI50 (SK-OV-3) | GI50 (NCI-H522) | GI50 (OVCAR-5) | GI50 (OVCAR-3) | GI50 (HOP-62) | GI50 (MCF7)
1 | N#Cc1c(N)n(-c2cccc(C(=O)O)c2)c(=O)c2cc([N+](=O)[O-])ccc12 | > 100 µM (inactive) | > 100 µM (inactive) | > 100 µM (inactive) | > 100 µM (inactive) | > 100 µM (inactive) | > 100 µM (inactive) | > 100 µM (inactive) | > 100 µM (inactive) | > 100 µM (inactive) | > 100 µM (inactive) | > 100 µM (inactive) | > 100 µM (inactive) | > 100 µM (inactive) | – | – | – | – | – | – | –
2 | CC1=NNC(=O)C1C1CC(c2c[nH]c3ccccc23)=NN(C(N)=O)C1=O (configuration not stated) | – | > 100 µM (inactive) | > 100 µM (inactive) | 28.5 µM (inactive) | 98.6 µM (inactive) | 75 µM (inactive) | > 100 µM (inactive) | > 100 µM (inactive) | 68.7 µM (inactive) | > 100 µM (inactive) | 33 µM (inactive) | 56 µM (inactive) | 34.3 µM (inactive) | 91.4 µM (inactive) | > 100 µM (inactive) | 31.8 µM (inactive) | > 100 µM (inactive) | > 100 µM (inactive) | > 100 µM (inactive) | –
3 | O=C(Cn1c2c(c3ccccc31)CCCC2)N1CCCC1 | 27.4 µM (inactive) | – | > 100 µM (inactive) | – | > 100 µM (inactive) | > 100 µM (inactive) | > 100 µM (inactive) | > 100 µM (inactive) | > 100 µM (inactive) | > 100 µM (inactive) | > 10 µM (inactive) | 77.1 µM (inactive) | > 100 µM (inactive) | 69.8 µM (inactive) | > 100 µM (inactive) | – | > 100 µM (inactive) | 83.9 µM (inactive) | > 100 µM (inactive) | > 100 µM (inactive)
4 | C/C(=C\CSCC(N)C(=O)O)CC/C=C(\C)CNc1ccccc1 (configuration not stated) | > 100 µM (inactive) | > 100 µM (inactive) | > 100 µM (inactive) | > 100 µM (inactive) | > 100 µM (inactive) | > 100 µM (inactive) | > 100 µM (inactive) | > 100 µM (inactive) | – | > 100 µM (inactive) | > 100 µM (inactive) | > 100 µM (inactive) | 64.1 µM (inactive) | > 100 µM (inactive) | > 100 µM (inactive) | 49 µM (inactive) | > 100 µM (inactive) | > 100 µM (inactive) | > 100 µM (inactive) | > 100 µM (inactive)
5 | Cc1ccc(SC2=C(N(C)C)C(=O)c3ccccc3C2=O)cc1 | 4.06 µM (inactive) | 9.82 µM (inactive) | 6.27 µM (inactive) | 3.06 µM (inactive) | 1.91 µM (inactive) | 12.3 µM (inactive) | 9.73 µM (inactive) | 3.82 µM (inactive) | – | 1.53 µM (inactive) | 0.383 µM (active) | 0.444 µM (active) | 6.43 µM (inactive) | 2.79 µM (inactive) | 10.7 µM (inactive) | 1.22 µM (inactive) | 12.9 µM (inactive) | 0.661 µM (active) | 8.2 µM (inactive) | 2.31 µM (inactive)
6 | Cn1c(-c2c(C3=CC(=O)N(c4ccccc4)C3=O)c3ccccc3n2C)cc2ccccc21 | > 100 µM (inactive) | > 100 µM (inactive) | > 100 µM (inactive) | 21.8 µM (inactive) | > 100 µM (inactive) | > 100 µM (inactive) | > 100 µM (inactive) | > 100 µM (inactive) | > 100 µM (inactive) | > 100 µM (inactive) | 69.2 µM (inactive) | > 100 µM (inactive) | – | > 100 µM (inactive) | 4.38 µM (inactive) | 50 µM (inactive) | > 100 µM (inactive) | > 100 µM (inactive) | > 100 µM (inactive) | > 100 µM (inactive)
7 | CCCCCCCC1(N=[N+]=[N-])C(=O)Nc2ccccc2C1=O (configuration not stated) | 16.2 µM (inactive) | – | 22.6 µM (inactive) | 22.5 µM (inactive) | – | 17.5 µM (inactive) | 16.8 µM (inactive) | 16.6 µM (inactive) | 19.8 µM (inactive) | 14.7 µM (inactive) | 16.4 µM (inactive) | 18.2 µM (inactive) | 16.7 µM (inactive) | 15.7 µM (inactive) | 15.7 µM (inactive) | – | 18.7 µM (inactive) | 16.1 µM (inactive) | 17.7 µM (inactive) | 19.1 µM (inactive)
8 | C1=NN2C(c3ccccc3)=NOC2C2C(c3ccccc3)=NOC12 (configuration not stated) | – | 96.2 µM (inactive) | – | > 100 µM (inactive) | > 100 µM (inactive) | > 100 µM (inactive) | – | > 100 µM (inactive) | > 100 µM (inactive) | > 100 µM (inactive) | – | – | > 100 µM (inactive) | > 100 µM (inactive) | > 100 µM (inactive) | 42.9 µM (inactive) | > 100 µM (inactive) | > 100 µM (inactive) | > 100 µM (inactive) | > 100 µM (inactive)
